From patent publication US20100041696A1, “Compounds” (priority 2006, published 2010)
Structures can show the parent of a compound that is named as a salt.

Target: T1, SCD (stearoyl-CoA desaturase), SCD-containing rat microsomes (Rattus norvegicus, UniProt P07308)
T1 construct: SCD-containing rat microsomes (2 μg protein); from tissue
T1 sequence (P07308 1-358): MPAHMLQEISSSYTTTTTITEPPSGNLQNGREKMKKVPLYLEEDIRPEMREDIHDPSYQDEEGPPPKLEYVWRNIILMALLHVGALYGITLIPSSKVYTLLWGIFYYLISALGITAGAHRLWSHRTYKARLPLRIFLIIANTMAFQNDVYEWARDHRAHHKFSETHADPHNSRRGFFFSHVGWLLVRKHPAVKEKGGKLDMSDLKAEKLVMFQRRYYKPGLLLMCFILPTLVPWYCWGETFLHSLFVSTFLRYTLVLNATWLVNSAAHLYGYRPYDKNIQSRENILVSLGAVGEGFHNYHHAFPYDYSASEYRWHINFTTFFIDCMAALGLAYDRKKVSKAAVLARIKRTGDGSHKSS
Assay: in vitro assay for SCD activity based on production of [3H]H2O from [9,10-3H] stearoyl Coenzyme A
Type: biochemical
Details: SCD-containing rat microsomes (2 μg protein), substrate [9,10-3H] stearoyl Coenzyme A 1 μM, 5 minutes preincubation, 6 minutes incubation; read-out: average pIC50 value, in vitro assay for SCD activity (converted)
Method: The compounds of the present invention may be analysed in vitro for SCD activity using an assay based on the production of [^3H]H2O, which is released during the enzyme-catalyzed generation of the monounsaturated fatty acyl CoA product. The assay is performed in a 96-well filtration plates. The titrated substrate used in the assay is the [9,10-^3H] stearoyl Coenzyme A. After incubation for 6 minutes of SCD-containing rat microsomes (2 μg protein) and substrate (1 μM), the labelled fatty acid acyl-CoA species and microsomes are absorbed with charcoal and separated from [^3H]H2O by centrifugation. The formation of [^3H]H2O is used as a measure of SCD activity. Compounds at concentrations starting at 10 μM to 0.1 nM or vehicle (DMSO) are preincubated for 5 minutes with the microsomes before addition of the substrate. The concentration-responses are fitted with sigmoidal curves to obtain IC50 values.

Row | IC50 [µM] | Compound
1 | 3.16 to 10 | O=C(Nc1ccc2c(c1)CCNC2)c1cnn(Cc2ccc(Cl)cc2)c1 [1-[(4-chlorophenyl)methyl]-N-(1,2,3,4-tetrahydro-6-isoquinolinyl)-1H-pyrazole-4-carboxamide hydrochloride]
2 | > 10 | CC(C)c1nn(Cc2ccc(Cl)c(Cl)c2)cc1C(=O)Nc1ccc2c(c1)CCNC2 [1-[(3,4-dichlorophenyl)methyl]-3-(1-methylethyl)-N-(1,2,3,4-tetrahydro-6-isoquinolinyl)-1H-pyrazole-4-carboxamide hydrochloride]
3 | 3.16 to 10 | O=C(Nc1cnn(COc2ccc(Cl)cc2)c1)c1ccc2c(c1)CCNC2 [N-(1-{[(4-chlorophenyl)oxy]methyl}-1H-pyrazol-4-yl)-1,2,3,4-tetrahydro-6-isoquinolinecarboxamide hydrochloride]
4 | > 10 | CC(C)c1ccc(Cn2cc(NC(=O)c3ccc4c(c3)CCNC4)cn2)cc1 [N-(1-{[4-(1-methylethyl)phenyl]methyl}-1H-pyrazol-4-yl)-1,2,3,4-tetrahydro-6-isoquinolinecarboxamide hydrochloride]
5 | > 10 | CC(C)c1ccc(Cn2cc(NC(=O)c3ccc4c(c3)CCN(C(=O)OC(C)(C)C)C4)cn2)cc1 [1,1-dimethylethyl 6-{[(1-{[4-(1-methylethyl)phenyl]methyl}-1H-pyrazol-4-yl)amino]carbonyl}-3,4-dihydro-2(1H)-isoquinolinecarboxylate]
6 | > 10 | CC(C)COc1ccc(Cl)cc1Cn1cc(NC(=O)c2ccc3c(c2)CCN(C(=O)OC(C)(C)C)C3)cn1 [1,1-dimethylethyl 6-({[1-({5-chloro-2-[(2-methylpropyl)oxy]phenyl}methyl)-1H-pyrazol-4-yl]amino}carbonyl)-3,4-dihydro-2(1H)-isoquinolinecarboxylate]
7 | 3.16 to 10 | Cc1ccc(Cn2cc(NC(=O)c3ccc4c(c3)CCNC4)cn2)cc1 [Example 14, N-{1-[(4-methylphenyl)methyl]-1H-pyrazol-4-yl}-1,2,3,4-tetrahydro-6-isoquinolinecarboxamide]
8 | 3.16 to 10 | O=C(Nc1cnn(Cc2ccccc2C(F)(F)F)c1)c1ccc2c(c1)CCNC2 [N-(1-{[2-(trifluoromethyl)phenyl]methyl}-1H-pyrazol-4-yl)-1,2,3,4-tetrahydro-6-isoquinolinecarboxamide hydrochloride]
9 | 3.16 to 10 | N#Cc1cccc(Cn2cc(NC(=O)c3ccc4c(c3)CCNC4)cn2)c1 [N-{1-[(3-cyanophenyl)methyl]-1H-pyrazol-4-yl}-1,2,3,4-tetrahydro-6-isoquinolinecarboxamide hydrochloride]
10 | 3.16 to 10 | O=C(Nc1cnn(Cc2ccccc2Cl)c1)c1ccc2c(c1)CCNC2 [Example 8, N-{1-[(2-chlorophenyl)methyl]-1H-pyrazol-4-yl}-1,2,3,4-tetrahydro-6-isoquinolinecarboxamide]
11 | 3.16 to 10 | O=C(Nc1cnn(Cc2ccccc2)c1)c1ccc2c(c1)CCNC2 [N-[1-(phenylmethyl)-1H-pyrazol-4-yl]-1,2,3,4-tetrahydro-6-isoquinolinecarboxamide hydrochloride]
12 | > 10 | CC(C)COc1ccc(Cl)cc1Cn1cc(NC(=O)c2ccc3c(c2)CCNC3)cn1 [N-[1-({5-chloro-2-[(2-methylpropyl)oxy]phenyl}methyl)-1H-pyrazol-4-yl]-1,2,3,4-tetrahydro-6-isoquinolinecarboxamide hydrochloride]
13 | > 10 | CC(C)c1c(C(=O)Nc2ccc3c(c2)CCNC3)cnn1Cc1ccc(Cl)c(Cl)c1 [1-[(3,4-dichlorophenyl)methyl]-5-(1-methylethyl)-N-(1,2,3,4-tetrahydro-6-isoquinolinyl)-1H-pyrazole-4-carboxamide hydrochloride]
14 | > 10 | O=C(Nc1ccc2c(c1)CCNC2)c1cnn(Cc2ccc(C(F)(F)F)cc2)c1 [N-(1,2,3,4-tetrahydro-6-isoquinolinyl)-1-{[4-(trifluoromethyl)phenyl]methyl}-1H-pyrazole-4-carboxamide hydrochloride]
